Laboratory results taken from US6423855B1, “Cytoprotective compounds” (Virginia Commonwealth University, priority 1996, dated 2002).

Tests used:
pancreatin = assay: degradation in vitro by pancreatin; format: in vitro ADME; details: commercial pancreatic enzyme preparation (Sigma)
Text: The compounds of the present invention are not generally hydrolyzed by pancreatic enzymes and are different from glycerol-based compounds in terms of their chemistry and metabolism. […] The resistance of PX-13 and PX-18 to metabolism by pancreatic enzymes supports their stability after oral administration.

epidermis cell turnover = assay: cell turnover rate (dansyl chloride); format: in vivo, human
Method: Two PX compounds PX-11 and PX-13 were evaluated in a cream formulation prepared under GMP. The chemicals were formulated into a bland cream and evaluated in the following human or mouse skin tests: (1) occluded patch test for irritation; (2) cell turnover rate; (3) transepidermal water loss; (4) skin moisturization; and (5) reduction in erythema after induced sunburn. The human skin tests were conducted on three volunteer female subjects, ages 29-32; a cream base with no added active was included as a control, while the untreated skin served as an additional basis for evaluation. Sunburn tests were performed on a total of 30 hairless albino mice. 2. Cell turnover rate: This parameter was measured by adsorption of dansyl chloride, in which 3% dansyl chloride was incorporated into petrolatum. This salve was applied over a 2.5 cm diameter circular area in the upper arm and a patch applied. 24 hours later the patch was removed. The intensity of dansyl chloride fluorescence was indicative of the cell turnover rate in the epidermis.

outer skin layers = assay: skin moisturization (20 megahertz ultrasound); format: in vivo, human; details: for Ultrasound Density Score: 30 minutes after application
Method: Two PX compounds PX-11 and PX-13 were evaluated in a cream formulation prepared under GMP. The chemicals were formulated into a bland cream and evaluated in the following human or mouse skin tests: (1) occluded patch test for irritation; (2) cell turnover rate; (3) transepidermal water loss; (4) skin moisturization; and (5) reduction in erythema after induced sunburn. The human skin tests were conducted on three volunteer female subjects, ages 29-32; a cream base with no added active was included as a control, while the untreated skin served as an additional basis for evaluation. Sunburn tests were performed on a total of 30 hairless albino mice. 4. Skin moisturization. Skin moisturization was measured using 20 megahertz ultrasound (the presence of moisture produces a density decrease in the outer skin layers), before and 30 minutes after product application to the forearm.

[1] = system: purified human disc PLA2 induced paw edema; assay: human disc PLA2-induced mouse paw edema; format: in vivo
Method: Edema was induced by injection of 1 ug of purified human disc PLA2 into the mouse footpad. PX-13 was administered either by gavage or intraperitoneally (IP) 60 min prior to enzyme challenge. Forty-five min after enzyme injection, the animals were sacrificed and the control and injected paws were removed and weighed to assess edema.

[2] = system: human NP-homogenate induced paw edema; assay: nucleus pulposus (NP)-induced mouse paw edema; format: in vivo
Method: Human NP-homogenate was prepared according to the following protocol and stored frozen until use. Human vertebral discs were thawed and the tissue pieces were washed twice with isotonic saline. Tissue samples were homogenized in a minimum volume of isotonic saline using a Brinkman homogenizer. This homogenate was filtered through two layers of cheesecloth and the resultant filtrate was subjected to Dounce homogenization. This homogenate was again filtered through two layers of cheesecloth and the filtrate was capable of passing through a 26-gauge needle; 50 ul of the filtrate was administered to each mouse paw.
The filtrate contained 1.57 mg/ml of protein and its PLA2 activity was 12.8% hydrolysis of 10 nmols of E.coli phospholipid/10 ul filtrate/30 min. incubation at 37° C. Therefore, each mouse paw received 78.5 ug NP filtrate. This sample of 78,500 ng total protein contained approximately 4.3 ng NP PLA2 protein. By comparison, we use 500-2000 ng of highly purified PLA2 to induce edema in this mouse model; and under these experimental conditions the maximal edema achieved is 160% of the contralateral paw minus 4-7% edema due to saline injection alone.
The data are expressed as percent of contralateral paw and as percent of maximal edema achieved with purified PLA2. Fifty ul (78.5 ug) was injected into the paw 30 min. after the mice were treated with PX-13 in HEPES administered IP or by gavage at 30 or 60 mg/kg. After 3 hrs,the paws were excised and weighed.

[3] = molecular target: T1, purified human disc type II, PLA2 (Homo sapiens, UniProt P14555); assay: inhibition of purified human disc type II PLA2; format: biochemical
T1 construct: the purified human disc type II, PLA2; from tissue; host or cells: human vertebral (herniated) disc
Method: Both PX-13 and PX-18 inhibit the purified human disc type II, PLA2. PLA2 activity was measured as described in Franson et al., Prostaglandins, Leukotrienes and Essential Fatty Acids, 43:63-70, 1991, which is herein incorporated by reference in its entirety.

[4] = peroxidation (malondialdehyde formation) of homogenized rat bowel
Method: These drugs were also tested for their ability to enhance the preservation of tissues stored for subsequent transplantation. The small bowel was removed from rats, washed free of luminal contents and the tissue stored in University of Wisconsin (UW) preservative media ±40 uM PX-13 or mepacrine for 48 hrs. The graft was then transplanted into rats with or without intravenous (IV) infusion of 20 mg/kg PX-13 or mepacrine at the time of transplantation. Upon transplantation, the bowel is immediately injured as evidenced by tissue darkening within two minutes. […] Both PX-13 and mepacrine inhibit the peroxidation (malondialdehyde formation) of homogenized rat bowel, an indication that the membrane-stabilizing, PLA2-inhibitors, also have anti-oxidant activity.

[5] = system: thrombin-stimulated platelets; assay: serotonin release by thrombin-stimulated platelets; format: cell-based
Text: Applicants have also observed that PX-13 inhibited serotonin release by thrombin-stimulated platelets. This observation supports the contention that the PX compounds of the present invention may block release of inflammatory mediators in the coagulation cascade. This observation also supports the use of PX compounds to inhibit thrombin-induced platelet aggregation and to act as anti-clotting agents.

mice = assay: acute toxicity (LD50 study), single IP dose; format: in vivo
Method: An LD50 study was conducted to determine a lethal dose for PX-13 suspended in HEPES buffer at a pH of 7.4. A single IP dose of 50, 100, 200 or 400 mg/kg was administered to mice (n=6 per group). […] No necropsy was performed.

T1 sequence (P14555 21-144): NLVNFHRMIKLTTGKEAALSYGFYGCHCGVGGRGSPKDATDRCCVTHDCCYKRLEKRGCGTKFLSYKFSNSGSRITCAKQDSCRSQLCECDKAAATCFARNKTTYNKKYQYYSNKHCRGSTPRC

## CCCCCCCC/C=C\CCCCCCCC(=O)OCC(COC(=O)CCCCCCC/C=C\CCCCCCCC)(COC(=O)CCCCCCC/C=C\CCCCCCCC)NCCS(=O)(=O)O [PX-13, 2-[Tris(oleoyloxymethyl)methylamino]-1-ethanesulfonic acid]
pancreatin
  degradation in vitro by pancreatin: resistant to degradation
Epidermis cell turnover; cream-treated skin, upper arm
  Days to Cell Renewal Treated: 21.6 days
Epidermis cell turnover; treated vs untreated skin
  % Change in Cell Turnover Time: −29%
Outer skin layers; Subject 1, 7 = Best, 1 = Baseline
  Ultrasound Density Score: 1
Outer skin layers; Subject 2
  Ultrasound Density Score: 2
Outer skin layers; Subject 3
  Ultrasound Density Score: −1
Outer skin layers; Total of 3 subjects, 7 = Best, 1 = Baseline
  Ultrasound Density Score Total: 2
Outer skin layers; in vivo
  moisturization properties: not good moisturizers
[1]; 20 mg/kg gavage, 60 min prior to enzyme, paws weighed 45 min after
  Percent Protection: 33%
[1]; 40 mg/kg IP
  Percent Protection: 48%
[1]; 40 mg/kg gavage
  Percent Protection: 55%
[1]; 60 mg/kg gavage
  Percent Protection: 63%
[2]; Gavage 30 mg/kg
  Percent Edema: 122 ± 5.6%
[2]; Gavage 60 mg/kg
  Percent Edema: 118 ± 2.0%
  Percent of Maximal: 22%
[2]; Gavage 60 mg/kg, 60 mg/kg
  Percent Inhibition: 36%
[2]; IP 30 mg/kg
  Percent Inhibition: 24%
[2]; IP 30 mg/kg, maximal edema with purified PLA2 = 54%
  Percent of Maximal: 26%
[2]; IP 30 mg/kg, percent of contralateral paw, 3 hrs
  Percent Edema: 120 ± 2.0%
[2]; IP 60 mg/kg
  Percent Edema: 115 ± 1.6%
  Percent of Maximal: 17%
[2]; IP 60 mg/kg, 60 mg/kg
  Percent Inhibition: 50%
[3]
  IC50: 2500 nM
[4]
  peroxidation (malondialdehyde formation): inhibit
[5]
  serotonin release: inhibited
mice; 400 mg/kg group, n=6
  deaths at 144 hrs: one animal in the 400 mg/kg group died
mice; mouse, in vivo
  tolerability: extremely well tolerated
